According to paper PMC10056899, “Neuroprotective and Antiherpetic Properties of Polyphenolic Compounds from Maackia amurensis Heartwood” (Molecules, 2023):
“And” between values parts separate entries of the source, which are not always exact repeats. Equal values may be shown once.

Legend:
[1] = tested on: PQ-treated Neuro-2a cells; test: Mitochondrial membrane potential in PQ-treated cells (TMRM); assay type: cell-based, murine; conditions: 0.1 μM
Experimental: […] Then, we added PQ (500 μM) and kept the cell suspension in a CO2-incubator for 1 h. Cells incubated without PQ and stilbenes and with PQ only were used as positive and negative control, respectively. We added the tetramethylrhodamine methyl (TMRM) (Sigma-Aldrich, St. Louis, MO, USA) solution (500 nM) to each well and kept the cells for 30 min in a CO2-incubator at 37 °C. The intensity of fluorescence was measured with a PHERAstar […] reader (BMG Labtech, Ortenberg, Germany) at λex = 540 nm and λem = 590 nm. We processed the data by MARS Data Analysis v. 3.01R2 (BMG Labtech, Ortenberg, Germany) and presented the results as percentages of the positive control value.

[2] = Cytotoxicity against Vero cells (MTT assay); assay type: cell-based; conditions: African green monkey (Chlorocebus sp.)
Experimental: (§1) The HSV-1 strain L2 and Vero cell culture (kidney epithelial cells of the African green monkey Chlorocebus sp.) were obtained from the N.F. Gamaleya Federal Research Centre for Epidemiology and Microbiology (Moscow, Russia). HSV-1 was grown in Vero cells, using Dulbecco′s Modified Eagle′s Medium (DMEM, Biolot, St. Petersburg, Russia) supplemented with 10% fetal bovine serum (FBS, Biolot, St. Petersburg, Russia) and 100 U/mL of gentamycin (Dalkhimpharm, Khabarovsk, Russia), at 37 °C in a CO2 incubator. In the maintenance medium, the FBS concentration was decreased to 1%.
(§2) The tested compounds were dissolved in DMSO (Sigma, St. Louis, MO, USA) at a concentration 10 mg/mL and stored at −20 °C. For cytotoxicity and anti-HSV-1 activity determination, the stock solutions were diluted with DMEM so that the final concentration of DMSO was 0.5%.
The cytotoxicity evaluation of the studied compounds was performed using the MTT assay, as described previously. In brief, confluent Vero cells in 96-well microplates (1 × 10^4 cells/well) were incubated with tested compounds at various concentrations (1–500 μg/mL) at 37 °C for 48 h (5% CO2). Untreated cells were used as controls. Then, MTT solution (methylthiazolyltetrazolium bromide, Sigma, St. Louis, MO, USA) was added to cells at a concentration of 5 mg/mL and the cells were incubated at 37 °C for 2 h. After dissolution of formazan crystals, optical densities were read at 540 nm (Labsystems Multiskan RC, Vantaa, Finland). […] [42]. Experiments were performed in triplicate and repeated three times.

[3] = Ferric reducing antioxidant power (FRAP) assay; conditions: 4 min, pH 3.6
Experimental: The FRAP assay was carried out as described in [41]. We prepared FRAP reagent by mixing 2.5 mL of TPTZ (2,4,6-tris(2-pyridyl)-s-triazine) solution (10 mM) in 40 mM HCl and […] of FeCl3 solution (20 mM) in acetate buffer solution (300 mM, pH 3.6). Then, we added stilbenes 1–6 to 3 mL of FRAP reagent at concentrations from 1 to 34 µM. The mixture was kept in the dark at room temperature for 4 min. Then, we measured the absorbance at 595 nm using a Shimadzu UV 1240 spectrophotometer. Equation (2) was used to calculate the FRAP values of stilbenes 1–6:(2) FRAP=CFe/Cx, where: • CFe is the concentration of Fe^2+ (µM) formed in the reaction; • Cx is the concentration of polyphenolic compounds in the reacting mixture.
The concentration of Fe^2+ (µM) formed in the reaction was determined using the calibration curve obtained for different concentrations of FeSO4·7H2O.

[4] = Cytotoxic activity against Neuro-2a cells (MTT assay); assay type: cell-based, murine; conditions: mouse, Neuro-2a neuroblastoma cells, data not shown, read-out: EC50 of cell viability reduction (cytotoxic activity)
Experimental: We purchased the murine neuroblastoma cell line Neuro-2a (CCL-131) from the American Type Culture Collection (ATCC®) (Manassas, VA, USA). We cultured Neuro-2a cells in Dulbecco′s Modified Eagle Medium (Biolot, St. Petersburg, Russia), which contained 10% fetal bovine serum (Biolot, St. Petersburg, Russia) and 1% penicillin/streptomycin (Biolot, St. Petersburg, Russia). We incubated the cells at 37 °C in a humidified atmosphere containing 5% (v/v) CO2.
We prepared the stock solutions of stilbenes in DMSO at a concentration of 10 mM. Compounds 1–6 were added to the wells of the plates in a volume of 20 μL diluted in PBS at the following final concentrations: 0.1, 1.0, and 10.0 µM (final concentration of DMSO <1%).
Neuro-2a cells (1 × 10^4 cells/well) were kept in a CO2 incubator at 37 °C for 24 h until they formed an adherent monolayer. Then, 20 μL of stilbenes solution was added to the cells. After incubation for 24 h, the medium containing the stilbenes was replaced by 100 μL of fresh DMEM medium. Then, we added 10 μL of MTT (3-(4,5-dimethylthiazol-2-yl)-2,5-diphenyltetrazolium bromide) (Sigma-Aldrich, St. Louis, MO, USA) stock solution (5 mg/mL) to each well and incubated the microplate for 4 h. […] After incubation for 18 h, we measured the absorbance of the converted dye formazan on a Multiskan FC microplate photometer (Thermo Scientific, Waltham, MA, USA) at a wavelength of 570 nm. […]

HSV-1 = test: Anti-HSV-1 activity, cytopathic effect (CPE) inhibition assay in Vero cells; assay type: cell-based, HSV-1 strain L2
Experimental: as §1, §2
The anti-HSV-1 activity of stilbenes was evaluated using cytopathic effect (CPE) inhibition assay in Vero cells. We infected the monolayer of cells grown in 96-well plates (1 × 10^4 cells/well) with 100 µL/well of virus suspension (100 TCD50/mL) and we simultaneously treated it with stilbenes 1–6 (100 µL/well) at various concentrations (from 1 to 400 μg/mL) for one hour at 37 ◦C. After virus absorption, we removed the mixture of virus and stilbenes, washed the cells, and added the maintenance medium with 1% FBS. […] We used MTT assay to evaluate the antiviral activity of stilbenes. The viral inhibition rate (IR, %) was calculated according to Equation (3):(3) IR, %=Atv−Acv/Acd−Acv×100, where: • Atv is the absorbance of cells infected with virus and treated with a polyphenolic compound; • Acv is the absorbance of the untreated virus-infected cells; • Acd is the absorbance of control (untreated and non-infected) cells.
The selectivity index (SI) was calculated as the ratio of CC50 to IC50. Experiments were repeated three times.

[5] = DPPH radical scavenging assay; conditions: 20 min
Experimental: The DPPH (2,2-diphenyl-1-picrylhydrazyl) scavenging effect of polyphenolic compounds 1-6 from M. amurensis heartwood was evaluated as described previously in [40]. Stilbenes were added to DPPH solution in MeOH (10^−4 M) at a concentration range from 1 to 34 µM. The mixture was kept in the dark at room temperature for 20 min. Then, we measured the absorbance at 517 nm using a Shimadzu UV 1240 spectrophotometer (Shimadzu, Kyoto, Japan). The DPPH radical-scavenging effect (%) of the stilbenes was calculated using Equation (1): (1) DPPH scavenging effect, %=A0−Ax/A0×100, where: • A0 is the absorbance of DPPH solution without polyphenolic compounds (blank sample); • Ax is the absorbance of DPPH solution in the presence of different concentrations of polyphenolic compounds.
Quercetin and ascorbic acid were used as reference compounds. All experiments were performed in triplicate. The half maximal inhibitory concentration (IC50) for polyphenolic compounds was calculated by plotting the DPPH scavenging effect (%) against the concentrations of polyphenolic compounds. IC50 values are given as the mean ± SEM.

[6] = tested on: PQ-treated Neuro-2a cells; test: Intracellular ROS level in PQ-treated cells (H2DCF-DA); assay type: cell-based, murine; conditions: Mus musculus, N2a, 0.1 μM (minimum studied concentration), PQ 1 mM
Experimental: After 24 h of adhesion, Neuro-2a cells (1 × 10^4 cells/well) were incubated with stilbenes (0.01–10 µM) for 1 h. After that, we added PQ (1 mM) to each well and incubated the cells for 3 h. To study ROS formation, we added 20 µL of 2,7-dichlorodihydrofluorescein diacetate solution ([…], H2DCF-DA, Molecular Probes, Eugene, OR, USA) to each well, so that the concentration was 10 µM, and kept the microplate in a CO2–incubator for additional 30 min at 37 °C.

## Oc1cc(O)cc(/C=C/c2ccc3c(c2)O[C@H](c2cc(O)cc(O)c2)[C@@H](c2ccc(O)c(O)c2)O3)c1 [Compound 3, maackin]
[1]
  Increase of mitochondrial membrane potential compared to PQ-treated cells: 16%
[2]
  CC50 at 48 h: 270 µg/mL and 555 µM
[3]
  FRAP CFe2+(µM)/Cpolyphenolic compound (µM): 10.11 ± 0.93 CFe2+(µM)/Cpolyphenolic compound (µM)
  FRAP CFe2+(µM)/Cpolyphenolic compound (μkg/mL): 20.80 ± 1.91 CFe2+(µM)/Cpolyphenolic compound (μkg/mL)
[4]
  EC50 at 24 h: 87.7 µM
HSV-1; Human alphaherpesvirus 1, Vero, read-out: IC50 (CPE assay)
  IC50: 17.6 µg/mL and 36.2 µM
HSV-1; Vero cells, HSV-1
  SI = CC50/IC50: 15.3 ± 1.9
[5]
  DPPH Scavenging Effect IC50: 1.31 ± 0.15 µg
[5]; read-out: DPPH Scavenging Effect IC50
  IC50: 2.7 ± 0.3 µM
[6]
  inhibition at 0.1 µM: 17%
